The values below are quoted from earlier work in patent US20100087702A1, “Composition and method to modify sperm fertility and female gender ratio in mammals” (priority 2008, published 2010).

For data set [1], the system named is Hexose Monophosphate Shunt (HMS). Particulars: Tiffen et al., 1991.
Data set [2] has as its system early-staged mouse embryos. Particulars: Williams, 1986.

Take `CCN(CC)c1cc2c(cc1C)Nc1ccc(N)cc1O2` [BCB, 2-methyl-3-diethylamino-7-amino phenoxazine]: the “increase in oxidation of glucose through the HMS” value in data set [1] is 15 fold. Also, the “toxicity of BCB and its metabolites” value in data set [2] was “relatively non-toxic”.
